Reference: patent US8703459B2, “Catalytic domains of beta(1,4)-galactosyltransferase I having altered metal ion specificity” (The United States of America, as represented by the …, priority 2003, dated 2014)

Tests used:
β4Gal-T1 = biological target: T1, β4Gal-T1 (Bos taurus, UniProt P08037); settings: read-out: Km value of the acceptor; cited from earlier work
T1 sequence (P08037 1-402): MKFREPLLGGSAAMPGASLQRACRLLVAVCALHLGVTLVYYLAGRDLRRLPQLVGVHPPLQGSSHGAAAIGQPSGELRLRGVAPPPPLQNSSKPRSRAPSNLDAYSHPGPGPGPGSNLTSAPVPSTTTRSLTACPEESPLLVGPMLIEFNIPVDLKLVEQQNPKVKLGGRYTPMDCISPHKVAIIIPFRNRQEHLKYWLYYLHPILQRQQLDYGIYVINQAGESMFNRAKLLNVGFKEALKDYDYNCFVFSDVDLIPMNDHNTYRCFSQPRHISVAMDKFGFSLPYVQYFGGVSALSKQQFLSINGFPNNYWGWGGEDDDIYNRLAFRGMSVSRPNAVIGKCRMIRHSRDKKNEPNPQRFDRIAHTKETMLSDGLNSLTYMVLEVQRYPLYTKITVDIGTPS

M344H-Gal-T1 = biological target: T2, M344H-Gal-T1 (Bos taurus, UniProt P08037, C342T/M344H); test: Acceptor substrate inhibition of M344H-Gal-T1 catalytic activity; type: biochemical, bovine; settings: in the presence of Mn^2+ (5 mM in FIG. 7c)
T2 construct: codes for residues 130 to 402 of bovine Gal-T1; made in house; host or cells: E. coli BL21(DE3) pLysS (pET23a derivative pEGT-d129)
T2 sequence (P08037 130-402 C342T/M344H): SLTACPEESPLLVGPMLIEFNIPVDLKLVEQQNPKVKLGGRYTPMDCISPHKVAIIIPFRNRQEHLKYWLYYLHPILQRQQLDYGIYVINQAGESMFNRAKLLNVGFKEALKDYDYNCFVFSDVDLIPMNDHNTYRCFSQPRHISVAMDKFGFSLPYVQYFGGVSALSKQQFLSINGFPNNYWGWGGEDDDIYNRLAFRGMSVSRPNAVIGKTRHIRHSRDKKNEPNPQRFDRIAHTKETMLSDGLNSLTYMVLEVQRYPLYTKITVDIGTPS
Experimental: FIG. 7 depicts the effect of GlcNAc concentration on Gal-T activity of the M344H-Gal-T1 mutant (a) and wild-type enzyme, C342T-Gal-T1 (b), at different fixed concentrations of Mn^2+: (a) (●) 6 μM, (O) 20 μM, (▾) 0.5 mM, (open triangle) 1.5 mM, and (▪) 5 mM and (b) (●) 6 μM, (open triangle) 80 μM, (▪) 0.5 mM, (▴) 1.5 mM, and (A) 5 mM. The activity of the mutant (a) is inhibited above 2-5 mM GlcNAc at any concentrations of Mn^2+, whereas the activity of the wild type (b) is inhibited at 25-30 mM GlcNAc and above 0.5 mM Mn^2+. (c) Effect of either GlcNAc, chitobiose, or β-benzyl-GlcNAc concentration on Gal-T activity of the mutant M344H-Gal-T1 in the presence of 5 mM Mn^2+. Arrows indicate the inhibition concentration for the respective curves. It is known that the disaccharide chitobiose binds strongly to the Gal-T1 compared to the monosaccharide GlcNAc. The higher the affinity of the acceptor substrate, the lower the required inhibition concentrations.
The inhibition of the M344H-Gal-T1 mutant with higher concentrations of the acceptor is independent of the concentration of Mn^2+ used in the assay (FIGS. 7A-C), while in the wild type, low concentrations of metal have no effect on acceptor inhibition (FIGS. 7A-C). […]

| SMILES | Km (β4Gal-T1) [µM] | inhibition of the catalytic activity of the M344H-Gal-T1 mutant by the acceptor (M344H-Gal-T1) |
| --- | --- | --- |
| CC(=O)N[C@H]1C(O)O[C@H](CO)[C@@H](O)[C@@H]1O (stereo partly drawn) [GlcNAc, N-acetylglucosamine] | 5000 |  |
| CC(=O)N[C@H]1[C@H](O[C@H]2[C@H](O)[C@@H](NC(C)=O)C(O)O[C@@H]2CO)O[C@H](CO)[C@@H](O)[C@@H]1O (stereo partly drawn) [chitobiose, βGlcNAc1-4GlcNAc] | 1000 | at very low concentrations much more strongly than GlcNAc does |
